Assay results as given in patent US10722518B2, “Oxazine derivative for use in the treatment or prevention of cerebral amyloid angiopathy” (Novartis AG, priority 2016, dated 2020).

Tested on: amyloid-beta in CD31-positive vessels
Experiment: Assessment of CAA in APP23 mice by CD31/NT12 double fluorescence immunohistochemistry and image analysis
Type: in vivo, mouse
Protocol: Amyloid plaques were stained using a rabbit anti-Aβ primary antibody (NT12) which recognizes the C-terminal part of the amyloid peptide (the antibody was raised as described in Schrader-Fischer G and Paganetti P A, 1996, and Schrader-Fischer G et al., 1997). The vascular endothelial cells were detected using a rat anti-CD31 antibody (reference DIA310) from Dianova GmbH (Hamburg, Germany). All stainings were performed using the fully automated instrument Ventana Discovery® Ultra (Roche Diagnostics Schweiz AG, Rotkreuz, Switzerland). All chemicals were provided by Roche Diagnostic.
All study animals were used and brain tissue sections of 3 micrometers were freshly cut and collected on SuperFrost+ slides. The tissues sections were de-paraffinized and rehydrated under solvent-free conditions (EZprep solution) followed by antigen retrieval (demasking) performed by heat retrieval cycles for 32 min in a EDTA based buffer (CC1 solution). Subsequently, slides were blocked for 4 min using the DISCOVERY Inhibitor (reference 07017944001 (Roche)). The primary antibody diluted at 1/10′000 in antibody diluent was manually added on tissue sections and incubated for 1 h at room temperature. A short post-fixation (glutaraldehyde at 0.05%) was performed before applying the multimer UltraMap-anti Rabbit HRP ready to use antibody (reference 05269717001) for 16 min.
Detection was performed using the DISCOVERY FITC® following the manufacturer's recommendations. Slides were then heat denaturated at 92° C. for 20 min before a manual application of the second primary antibody (rat anti-CD31 diluted at 1/1′000 in antibody diluent) and incubated for 1 h. Multimer UltraMap-anti-Rat HRP antibody (reference 05891884001) was used for 20 min to detect CD31 in combination with the DISCOVERY Rhodamine kit (reference 07259883001).
The slides were washed and mounted using Prolong® Gold antifade reagent (reference P36931, ThermoFisher, Switzerland) and further scanned with the Hamamatsu slide scanner instrument (NanoZoomer 2.0 HT, scanning software NDP-Scan Vers. 2.5, Hamamatsu Photonics France, Swiss Office, Solothurn, Switzerland) at the 40× objective. The scanning settings were as follows: the exposure time with the DAPI filter was set at 28.5 ms as well as for the FITC filter and TRITC filter (detection of Rhodamine).
For the quantitative plaque and vessel-associated amyloid-beta evaluation based on image analysis, a proprietary image analysis platform (ASTORIA, Automated Stored Image Analysis) was developed based on MS Visual Studio 2010 and many functions from Matrox MIL V9 libraries (Matrox Inc, Quebec, Canada).
For the beta-amyloid plaque and vessel analysis, the following sequence of steps was performed: • Slides were scanned with Hamamatsu Nanozoomer at 40× magnification. […]

[1] = 0.03 g/kg food, 6 months, all CD31+ vessels
[2] = 0.03 g/kg food, 6 months, large CD31-positive vessels
[3] = 0.03 g/kg vs vehicle, all CD31+ vessels
[4] = 0.03 g/kg vs vehicle, large vessels
[5] = 0.03 g/kg vs vehicle, small + medium vessels

With `C[C@@]1(c2nc(NC(=O)c3ncc(C(F)(F)F)cc3Cl)ccc2F)CO[C@@](C)(C(F)(F)F)C(N)=N1` [Compound 1, N-(6-((3R,6R)-5-amino-3,6-dimethyl-6-(trifluoromethyl)-3,6-dihydro-2H-1,4-oxazin-3-yl)-5-fluoropyridin-2-yl)-3-chloro-5-(trifluoromethyl)picolinamide] the “% of large vessels with 0% Aβ” value (0.03 g/kg food, 6 months) was 9.14 ± 9.14%, the “% of large vessels with 1-10% Aβ” value (0.03 g/kg food, 6 months) was 17.4 ± 1.63% and the “% of large vessels with 10-25% Aβ” value (0.03 g/kg food, 6 months) was 11.2 ± 1.68%. For the same molecule, the “% of large vessels with 25-50% Aβ” value (0.03 g/kg food, 6 months) was 17.5 ± 2.63%, the “% of large vessels with 50-75% Aβ” value (0.03 g/kg food, 6 months) was 27.7 ± 1.97% and the “% of large vessels with >10% Aβ” value (0.03 g/kg food, 6 months) was 73.5 ± 3.4%. For the same molecule, the “% of large vessels with >75% Aβ” value (0.03 g/kg food, 6 months) was 17.0 ± 2.92%, the “% of small + medium vessels with 0% Aβ” value (0.03 g/kg food, 6 months) was 63.7 ± 2.83% and the “% of small + medium vessels with 1-10% Aβ” value (0.03 g/kg food, 6 months) was 22.3 ± 2.65%. For the same molecule, the “% of small + medium vessels with 10-25% Aβ” value (0.03 g/kg food, 6 months) was 4.86 ± 0.48%, the “% of small + medium vessels with 25-50% Aβ” value (0.03 g/kg food, 6 months) was 3.55 ± 0.35% and the “% of small + medium vessels with 50-75% Aβ” value (0.03 g/kg food, 6 months) was 2.5 ± 0.31%. For the same molecule, the “% of small + medium vessels with >10% Aβ” value (0.03 g/kg food, 6 months) was 14.0 ± 1.01%, the “% of small + medium vessels with >75% Aβ” value (0.03 g/kg food, 6 months) was 3.11 ± 0.44% and the “CAA Frequency (number small + medium vessels with >10% Aβ normalized to sample area, *10^7)” value (0.03 g/kg food, 6 months) was 91 ± 5.9. The “Number of large CD31+ vessels (normalized to total CD31 positive vessel numbers in %)” value (0.03 g/kg food, 6 months) was 1.89 ± 0.17%, the “Number of small + medium CD31+ vessels (normalized to total CD31 positive small + medium vessel numbers in %)” value (0.03 g/kg food, 6 months) was 98.1 ± 0.17% and the “Number small + medium vessels with >10% Aβ, mean ± SEM” value (0.03 g/kg food, 6 months) was 288 ± 21.9. The “Total number CD31+ vessels (normalized to total sample area, *10^5), mean ± SEM” value (0.03 g/kg food, 6 months) was 6.52 ± 0.4, the “Total vessel-associated NT12 area (normalized to total small + medium CD31+ vessel area)” value (0.03 g/kg food, 6 months) was 0.286 ± 0.0313 and the “% of vessels with 0% Aβ” value [1] was 60.3 ± 3.49%. For the same molecule, the “% of vessels with 1-10% Aβ” value [1] was 23.2 ± 2.6%, the “% of vessels with 10-25% Aβ” value [1] was 5.65 ± 0.8% and the “% of vessels with 25-50% Aβ” value [1] was 4.06 ± 0.44%. For the same molecule, the “% of vessels with 50-75% Aβ” value [1] was 3.13 ± 0.35%, the “% of vessels with >10% Aβ” value [1] was 16.5 ± 0.76% and the “% of vessels with >75% Aβ” value [1] was 3.7 ± 0.55%. The “CAA Frequency (number vessels with >10% Aβ normalized to sample area, *10^7)” value [1] was 94 ± 6.5, the “Number vessels with >10% Aβ, mean ± SEM” value [1] was 319 ± 22.2 and the “Total vessel-associated NT12 area (normalized to total CD31+ area)” value [1] was 0.65 ± 0.07. The “CAA Frequency (number vessels with >10% Aβ normalized to sample area, *10^7)” value [2] was 9.3 ± 1.0, the “Number vessels with >10% Aβ, mean ± SEM” value [2] was 29 ± 3.0 and the “Total vessel-associated NT12 area (normalized to total CD31+ area)” value [2] was 0.79 ± 0.05. For the same molecule, the “% of large vessels with 0% Aβ, treatment effect vs vehicle” value (0.03 g/kg vs vehicle) was −18%, the “% of large vessels with 1-10% Aβ, treatment effect vs vehicle” value (0.03 g/kg vs vehicle) was “+19%” and the “% of large vessels with 10-25% Aβ, treatment effect vs vehicle” value (0.03 g/kg vs vehicle) was “+60%”. The “% of large vessels with 25-50% Aβ, treatment effect vs vehicle” value (0.03 g/kg vs vehicle) was −9%, the “% of large vessels with 50-75% Aβ, treatment effect vs vehicle” value (0.03 g/kg vs vehicle) was −15% and the “% of large vessels with >10% Aβ, treatment effect vs vehicle” value (0.03 g/kg vs vehicle) was −1%. For the same molecule, the “% of large vessels with >75% Aβ, treatment effect vs vehicle” value (0.03 g/kg vs vehicle) was “+12%”, the “% of small + medium vessels with 0% Aβ, treatment effect vs vehicle” value (0.03 g/kg vs vehicle) was −13% and the “% of small + medium vessels with 1-10% Aβ, treatment effect vs vehicle” value (0.03 g/kg vs vehicle) was “+76%”. For the same molecule, the “% of small + medium vessels with 10-25% Aβ, treatment effect vs vehicle” value (0.03 g/kg vs vehicle) was “+16%”, the “% of small + medium vessels with 25-50% Aβ, treatment effect vs vehicle” value (0.03 g/kg vs vehicle) was −9% and the “% of small + medium vessels with 50-75% Aβ, treatment effect vs vehicle” value (0.03 g/kg vs vehicle) was −6%. The “% of small + medium vessels with >10% Aβ, treatment effect vs vehicle” value (0.03 g/kg vs vehicle) was “+1%”, the “% of small + medium vessels with >75% Aβ, treatment effect vs vehicle” value (0.03 g/kg vs vehicle) was 0% and the “Total small + medium vessel-associated NT12 area (normalized to total CD31+ small + medium vessel area), treatment effect vs vehicle” value (0.03 g/kg vs vehicle) was “+6% n.s”. The “% of vessels with 0% Aβ, treatment effect vs vehicle” value [3] was −17%, the “% of vessels with 1-10% Aβ, treatment effect vs vehicle” value [3] was “+82%” and the “% of vessels with 10-25% Aβ, treatment effect vs vehicle” value [3] was “+34%”. The “% of vessels with 25-50% Aβ, treatment effect vs vehicle” value [3] was −2%, the “% of vessels with 50-75% Aβ, treatment effect vs vehicle” value [3] was 0% and the “% of vessels with >10% Aβ, treatment effect vs vehicle” value [3] was “+12%”. For the same molecule, the “% of vessels with >75% Aβ, treatment effect vs vehicle” value [3] was “+12%”, the “CAA Frequency, treatment effect vs vehicle” value (shortened to “CAA Frequency … vs vehicle”) [3] was −4% n.s and the “Number vessels with >10% Aβ, treatment effect vs vehicle” value [3] was −10% n.s. For the same molecule, the “Total vessel-associated NT12 area (normalized to total CD31+ area), treatment effect vs vehicle” value [3] was “+14% n.s”, the “CAA Frequency … vs vehicle” value [4] was “+20% n.s” and the “Number vessels with >10% Aβ, treatment effect vs vehicle” value [4] was “+4% n.s”. The “Total vessel-associated NT12 area (normalized to total CD31+ area), treatment effect vs vehicle” value [4] was −1% n.s, the “CAA Frequency … vs vehicle” value [5] was “+2% n.s” and the “Number vessels with >10% Aβ, treatment effect vs vehicle” value [5] was −12% n.s.
